The values below come from paper PMC6352943, “Novel pyrazolo[3,4-d]pyrimidines: design, synthesis, anticancer activity, dual EGFR/ErbB2 receptor tyrosine kinases inhibitory activity, effects on cell cycle profile and caspase-3-mediated apoptosis” (Journal of Enzyme Inhibition and Medicinal Chemistry, 2019).

What all share (test): NCI 60 cell line single dose screen (SRB)
Common to all, as to type: cell-based

The test system of assay [1] is 786-0. Conditions: Homo sapiens; 786-0 (renal cancer), single dose 10^−5 M, 48 h; read-out: Growth inhibition percentage. How it is done: (§1) Anticancer activity screening of the newly synthesised compounds was measured in vitro utilising 60 different human tumour cell lines provided by US National Cancer Institute according to previously reported standard procedure[27–29] as follows: Cells are inoculated into 96-well microtitre plates in 100 ml. After cell inoculation, the microtitre plates are incubated at 37 °C, 5% CO2, 95% air and 100% relative humidity for 24 h prior to addition of experimental compounds. After 24 h, two plates of each cell line are fixed in situ with TCA, to represent a measurement of the cell population for each cell line at the time of drug addition (Tz). Experimental compounds are solubilised in dimethyl sulphoxide at 400-fold the desired final maximum test concentration and stored frozen prior to use. At the time of compound addition, an aliquot of frozen concentrate is thawed and diluted to twice the desired final maximum test concentration with complete medium containing […] gentamicin. Aliquots of […] of the compounds dilutions are added to the appropriate microtitre wells already containing 100 ml of medium, resulting in the required final compound concentration. Following compound addition, the plates are incubated for an additional 48 h at 37 °C, 5% CO2, 95% air, and 100% relative humidity. For adherent cells, the assay is terminated by the addition of cold trichloroacetic acid (TCA). Cells are fixed in situ by the gentle addition of 50 ml of cold 50% (w/v) TCA (final concentration, 10% TCA) and incubated for 60 min at 4 °C. The supernatant is discarded, and the plates are washed five times with tap water and air-dried. Sulphorhodamine B (SRB) solution (100 ml) at 0.4% (w/v) in 1% acetic acid is added to each well, and plates are incubated for 10 min at room temperature. After staining, unbound dye is removed by washing five times with 1% acetic acid and the plates are air-dried. Bound stain is subsequently solubilised with 10 mM trizma base, and the absorbance is read on an automated plate reader at a wavelength of 515 nm. For suspension cells, the methodology is the same except that the assay is terminated by fixing settled cells at the bottom of the wells by gently adding 50 ml of 80% TCA (final concentration, 16% TCA). Using the absorbance measurements [time zero, (Tz), control growth, (C), and test growth in the presence of compound (Ti)], the percentage growth is calculated for each compound. Percentage growth inhibition is calculated as: [(Ti – Tz)/(C – Tz)] x 100 for concentrations for which Ti >/=Tz. [(Ti – Tz)/Tz] x 100 for concentrations for which Ti < Tz.

For assay [2], the system named is A549/ATCC. To be noted: Homo sapiens; A549/ATCC (non-small cell lung cancer), single dose 10^−5 M, 48 h; read-out: Growth inhibition percentage. How it is done:
as §1

Assay [3] concerns EKVX. To be noted: Homo sapiens; EKVX (non-small cell lung cancer), single dose 10^−5 M, 48 h; read-out: Growth inhibition percentage. How it is done:
as §1

Assay [4] has as its system HS 578T. Conditions: Homo sapiens; HS 578T (breast cancer), single dose 10^−5 M, 48 h; read-out: Growth inhibition percentage. How it is done: as §1
Assay [5] deals with M14. To be noted: Homo sapiens; M14 (melanoma), single dose 10^−5 M, 48 h; read-out: Growth inhibition percentage. How it is done: as §1
The subject of assay [6] is MALME-3M. To be noted: Homo sapiens; MALME-3M (melanoma), single dose 10^−5 M, 48 h; read-out: Growth inhibition percentage. How it is done:
as §1

Assay [7] relates to MCF7. To be noted: Homo sapiens; MCF7 (breast cancer), single dose 10^−5 M, 48 h; read-out: Growth inhibition percentage. How it is done:
as §1

The subject of assay [8] is MDA-MB-231/ATCC. Conditions: Homo sapiens; MDA-MB-231/ATCC (breast cancer), single dose 10^−5 M, 48 h; read-out: Growth inhibition percentage. How it is done: as §1
For assay [9], the system named is MDA-MB-435. Conditions: Homo sapiens; MDA-MB-435 (melanoma), single dose 10^−5 M, 48 h; read-out: Growth inhibition percentage. How it is done:
as §1

The test system of assay [10] is MOLT-4. Conditions: Homo sapiens; MOLT-4 (leukemia), single dose 10^−5 M, 48 h; read-out: Growth inhibition percentage. Here is the method:
as §1

The subject of assay [11] is NCI-H226. To be noted: Homo sapiens; NCI-H226 (non-small cell lung cancer), single dose 10^−5 M, 48 h; read-out: Growth inhibition percentage. Here is the method:
as §1

In assay [12] the test system is NCI-H522. To be noted: Homo sapiens; NCI-H522 (non-small cell lung cancer), single dose 10^−5 M, 48 h; read-out: Growth inhibition percentage. How it is done:
as §1

Assay [13] relates to OVCAR-3. To be noted: Homo sapiens; OVCAR-3 (ovarian cancer), single dose 10^−5 M, 48 h; read-out: Growth inhibition percentage. How it is done:
as §1

Assay [14] concerns OVCAR-8. To be noted: Homo sapiens; OVCAR-8 (ovarian cancer), single dose 10^−5 M, 48 h; read-out: Growth inhibition percentage. How it is done: as §1
Assay [15] relates to RPMI-8226. To be noted: Homo sapiens; RPMI-8226 (leukemia), single dose 10^−5 M, 48 h; read-out: Growth inhibition percentage. Here is the method:
as §1

Assay [16] has as its system SF-593. Conditions: Homo sapiens, SF-593 (CNS cancer), single dose 10^−5 M, 48 h, read-out: Growth inhibition percentage. Here is the method: as §1
Assay [17] deals with SK-MEL-28. Conditions: Homo sapiens; SK-MEL-28 (melanoma), single dose 10^−5 M, 48 h; read-out: Growth inhibition percentage. How it is done:
as §1

The test system of assay [18] is SK-OV-3. To be noted: Homo sapiens; SK-OV-3 (ovarian cancer), single dose 10^−5 M, 48 h; read-out: Growth inhibition percentage. How it is done:
as §1

The test system of assay [19] is SNB-75. Conditions: Homo sapiens; SNB-75 (CNS cancer), single dose 10^−5 M, 48 h; read-out: Growth inhibition percentage. Here is the method: as §1
Assay [20] deals with TK-10. To be noted: Homo sapiens; TK-10 (renal cancer), single dose 10^−5 M, 48 h; read-out: Growth inhibition percentage. How it is done:
as §1

For assay [21], the system named is U251. Conditions: Homo sapiens, U-251; U251 (CNS cancer), single dose 10^−5 M, 48 h; read-out: Growth inhibition percentage. Here is the method: as §1

Take `COc1ccc(N2CCN(c3ncnc4c3c(C)nn4-c3ccc(F)cc3)CC2)cc1` [Compound 8d, 1–(4-Fluorophenyl)-4–(4-(4-methoxyphenyl)piperazin-1-yl)-3-methyl-1H-pyrazolo[3,4-d]pyrimidine]: the inhibition (usually the drop in the measured response relative to a control, in per cent) at 10 µM in [1] was -4.57%; in [2], -4.08%; in assay [3] it was 7.21%; in assay [4], 5.99%; in assay [5], 3.95%; in assay [6], 5.14%. In addition, the inhibition at 10 µM in assay [7] was 1.6%; in [8] it was 2.36%; in assay [9], -6.1%; in assay [10], 3.49%; in assay [11], 5.22%; in [12] it was 3.59%. Also, the inhibition at 10 µM was -8.47% in [13]; 1.33% in [14]; 6.45% in [15]; 8.43% in assay [16]; -8.74% in assay [17]; 3.69% in assay [18]. For the same compound, the figures for the inhibition at 10 µM in assay [19], in assay [20] and in [21] were 5.93%, -48% and -2.5%, respectively.
As to `Cc1nn(-c2ccc(F)cc2)c2nc(N)nc(N)c12` [Compound 5, 1–(4-Fluorophenyl)-3-methyl-1H-pyrazolo[3,4-d]pyrimidine-4,6-diamine], the inhibition at 10 µM in assay [1] was 2.79%; in [2] it was -1.96%; in [3], 6.25%; in assay [4], -3.27%; in assay [5], -2.93%; in assay [6], -7.8%. Moreover, the inhibition at 10 µM in assay [7] was 0.73%; in [8], -9.11%; in assay [9], -7.73%; in assay [10], -0.48%; in [11] it was -8.08%; in [12], 2.08%. Besides, the inhibition at 10 µM in assay [13] is -12.9%; in [14] it was -7.15%; in [15] it was -3.69%; in assay [16], 2.81%; in [17], -4.89%; in assay [18], -6.26%. In addition, the values for the inhibition at 10 µM in assay [19], in assay [20] and in [21] were 5.33%, -13% and -6.63%, respectively.
